Drawing on US20240383856A1 (Zedira GmbH, priority 2021, published 2024), this text covers IC50, logD and Papp for 17 molecules.

Data set [1] concerns the target T1, recombinant human transglutaminase 2 (Homo sapiens, UniProt P21980).
T1 construct: purchased Zedira T022
T1 sequence (P21980 1-687): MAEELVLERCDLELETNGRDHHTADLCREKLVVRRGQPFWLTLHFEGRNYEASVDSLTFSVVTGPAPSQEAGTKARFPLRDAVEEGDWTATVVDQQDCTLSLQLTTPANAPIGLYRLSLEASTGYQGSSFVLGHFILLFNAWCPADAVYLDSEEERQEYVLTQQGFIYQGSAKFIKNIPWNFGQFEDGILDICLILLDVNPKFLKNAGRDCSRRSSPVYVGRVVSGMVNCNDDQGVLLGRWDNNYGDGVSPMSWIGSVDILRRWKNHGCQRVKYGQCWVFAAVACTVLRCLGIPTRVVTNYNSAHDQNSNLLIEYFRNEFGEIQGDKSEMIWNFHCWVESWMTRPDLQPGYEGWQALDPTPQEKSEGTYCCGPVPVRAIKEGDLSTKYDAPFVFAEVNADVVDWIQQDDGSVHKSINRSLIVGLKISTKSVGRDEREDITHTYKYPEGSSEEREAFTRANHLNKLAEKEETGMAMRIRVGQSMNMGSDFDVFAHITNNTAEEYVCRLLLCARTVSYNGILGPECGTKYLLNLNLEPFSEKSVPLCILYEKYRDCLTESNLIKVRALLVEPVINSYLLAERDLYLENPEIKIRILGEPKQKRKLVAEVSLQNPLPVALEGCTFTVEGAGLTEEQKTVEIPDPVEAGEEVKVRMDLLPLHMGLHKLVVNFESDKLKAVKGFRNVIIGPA
As to the kind of experiment: Transglutaminase assay (DCC-assay): incorporation of dansylcadaverine into dimethylcasein. It counts as biochemical. To be noted: recombinant human TG2 10 nM; dansylcadaverine incorporation into dimethylcasein; read-out: IC50 TG2. Put shortly: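 IC50 is the inhibitor level that blocks 50% of initial activity. Activity is the fluorescence slope (λex 330, λem 500 nm) between 20 and 30 min of a 37 °C run, relative to a 2% DMSO control. The enzyme is recombinant human tissue transglutaminase, 10 nM final, tested against a 1:2 inhibitor dilution series in a pH 8.0 mix with 10 mM CaCl2, 10 mM glutathione, 16.7 µM dansylcadaverine and 4 µM N,N-dimethylcasein.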

Data set [2] in a line: logD by shake flask method (octanol / PBS pH 7.4, HPLC). It counts as physicochemical. To be noted: octanol / PBS pH 7.4, shake flask. Put shortly:
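LogD obtained by HPLC measurement of how the compound distributes between PBS (pH 7.4) and octanol in a shake-flask experiment.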

Data set [3] in a line: Caco-2 permeability assay (CacoReady kit). To be noted: human, Caco-2, Caco-2 barrier, CacoReady kit; above 1×10^−6 cm/s classified as permeable. In kind it is in vitro ADME. An outline of the steps:
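Caco-2 monolayer barrier, commercial ready-to-use kit, manufacturer protocol. Read-out: Papp.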
(In general: Passage across Caco-2 layers is used to estimate intestinal permeability.)

Consider `CNC(=O)C(=O)CC[C@H](NC(=O)c1csc2ccccc12)C(=O)Nc1cccn(CC(=O)NC2C3CC4CC(C3)CC2C4)c1=O` (stereo partly drawn) [II-137, (S)-2-(benzo[b]thiophene-3-carboxamido)-N1-(1-(2-(2-adamantylamino)-2-oxoethyl)-2-oxo-1,2-dihydropyridin-3-yl)-N6-methyl-5-oxohexanediamide], for which the half-maximal inhibitory concentration (IC50) (in general, the midpoint of a concentration-inhibition curve) in data set [1] is 40 to 400 nM. In addition, in data set [2], the logD – broadly, the decadic logarithm of the distribution of all forms, ionised or not, between an organic phase and buffer at a given pH – is 3 to 5. Further, the Papp (commonly a coefficient for how fast a substance crosses the barrier) in data set [3] is 1 to 10 ×10⁻⁶ cm/s.
Take `CNC(=O)C(=O)CC[C@H](NC(=O)c1ccn(C)n1)C(=O)Nc1cccn(CC(=O)NC2C3CC4CC(C3)CC2C4)c1=O` (stereo partly drawn) [II-138, (S)-N1-(1-(2-(2-adamantylamino)-2-oxoethyl)-2-oxo-1,2-dihydropyridin-3-yl)-N6-methyl-2-(1-methyl-1H-pyrazole-3-carboxamido)-5-oxohexanediamide]: the IC50 in data set [1] was 400 to 2500 nM. The logD in data set [2] is below 1. The molecule further showed a Papp in data set [3] below 1 ×10⁻⁶ cm/s.
As to `CNC(=O)C(=O)CC[C@H](NC(=O)c1cnn(C)c1)C(=O)Nc1cccn(CC(=O)NC2C3CC4CC(C3)CC2C4)c1=O` (stereo partly drawn) [II-139, (S)-N1-(1-(2-(2-adamantylamino)-2-oxoethyl)-2-oxo-1,2-dihydropyridin-3-yl)-N6-methyl-2-(1-methyl-1H-pyrazole-4-carboxamido)-5-oxohexanediamide], the IC50 in data set [1] lay within 400 to 2500 nM. This molecule registered a logD in data set [2] below 1. This molecule registered a Papp in data set [3] below 1 ×10⁻⁶ cm/s.
Taken in the same sequence, the figures for `CNC(=O)C(=O)CC[C@H](NC(=O)c1ccnn1C)C(=O)Nc1cccn(CC(=O)NC2C3CC4CC(C3)CC2C4)c1=O` (stereo partly drawn) [II-140, (S)-N1-(1-(2-(2-adamantylamino)-2-oxoethyl)-2-oxo-1,2-dihydropyridin-3-yl)-N6-methyl-2-(1-methyl-1H-pyrazole-5-carboxamido)-5-oxohexanediamide] were 40 to 400 nM, below 1 and below 1 ×10⁻⁶ cm/s.
The matching figures for `CNC(=O)C(=O)CC[C@H](NC(=O)c1snnc1C)C(=O)Nc1cccn(CC(=O)NC2C3CC4CC(C3)CC2C4)c1=O` (stereo partly drawn) [II-141, (S)-N1-(1-(2-(2-adamantylamino)-2-oxoethyl)-2-oxo-1,2-dihydropyridin-3-yl)-N6-methyl-2-(4-methyl-1,2,3-thiadiazole-5-carboxamido)-5-oxohexanediamide]: 40 to 400 nM, below 1 and below 1 ×10⁻⁶ cm/s.
Consider `CNC(=O)C(=O)CC[C@H](NC(=O)c1cnsn1)C(=O)Nc1cccn(CC(=O)NC2C3CC4CC(C3)CC2C4)c1=O` (stereo partly drawn) [II-142, (S)-N1-(1-(2-(2-adamantylamino)-2-oxoethyl)-2-oxo-1,2-dihydropyridin-3-yl)-N6-methyl-5-oxo-2-(1,2,5-thiadiazole-3-carboxamido)hexanediamide], for which the 50% inhibitory concentration (IC50) in data set [1] lay within 40 to 400 nM. Further, the logD in data set [2] was in the range of 1 to 3. The Papp in data set [3] is below 1 ×10⁻⁶ cm/s.
For `CNC(=O)C(=O)CC[C@H](NC(=O)c1c(I)cnn1C)C(=O)Nc1cccn(CC(=O)NC2C3CC4CC(C3)CC2C4)c1=O` (stereo partly drawn) [II-143, (S)-2-(4-iodo-1-methyl-1H-pyrazole-5-carboxamido)-N1-(1-(2-(2-adamantylamino)-2-oxoethyl)-2-oxo-1,2-dihydropyridin-3-yl)-N6-methyl-5-oxohexanediamide], the IC50 in data set [1] is 400 to 2500 nM. In addition, the pH-dependent lipophilicity (logD) in data set [2] was below 1. Further, the Papp in data set [3] was below 1 ×10⁻⁶ cm/s.
In the case of `Cn1nccc1C(=O)N[C@@H](CCC(=O)C(N)=O)C(=O)Nc1cccn(CC(=O)NC2C3CC4CC(C3)CC2C4)c1=O` (stereo partly drawn) [II-144, (S)-N1-(1-(2-(2-adamantylamino)-2-oxoethyl)-2-oxo-1,2-dihydropyridin-3-yl)-2-(1-methyl-1H-pyrazole-5-carboxamido)-5-oxohexanediamide], in data set [1], the IC50 lay within 400 to 2500 nM. For the same molecule, the logD in data set [2] was below 1. Besides, in data set [3], the Papp was below 1 ×10⁻⁶ cm/s.
As for `Cc1nnsc1C(=O)N[C@@H](CCC(=O)C(N)=O)C(=O)Nc1cccn(CC(=O)NC2C3CC4CC(C3)CC2C4)c1=O` (stereo partly drawn) [II-145, (S)-N1-(1-(2-(2-adamantylamino)-2-oxoethyl)-2-oxo-1,2-dihydropyridin-3-yl)-2-(4-methyl-1,2,3-thiadiazole-5-carboxamido)-5-oxohexanediamide], the IC50 in data set [1] was 40 to 400 nM. In addition, the logD in data set [2] was below 1. The apparent permeability coefficient (Papp) in data set [3] is below 1 ×10⁻⁶ cm/s.
The matching figures for `NC(=O)C(=O)CC[C@H](NC(=O)c1cc2ccccc2o1)C(=O)Nc1cccn(CC(=O)N[C@@H]2C[C@H]3CC[C@@H]2C3)c1=O` [II-146, (S)-2-(benzofuran-2-carboxamido)-N1-(1-(2-((1R,2R,4S)-bicyclo[2.2.1]heptan-2-ylamino)-2-oxoethyl)-2-oxo-1,2-dihydropyridin-3-yl)-5-oxohexanediamide]: below 40 nM, below 1 and 1 to 10 ×10⁻⁶ cm/s.
As for `Cc1c(C(=O)N[C@@H](CCC(=O)C(N)=O)C(=O)Nc2cccn(CC(=O)N[C@@H]3C[C@H]4CC[C@@H]3C4)c2=O)oc2ccccc12` [II-147, (S)-N1-(1-(2-((1R,2R,4S)-bicyclo[2.2.1]heptan-2-ylamino)-2-oxoethyl)-2-oxo-1,2-dihydropyridin-3-yl)-2-(3-methylbenzofuran-2-carboxamido)-5-oxohexanediamide], the IC50 in data set [1] was below 40 nM. The logD in data set [2] was below 1. For the same molecule, the Papp in data set [3] fell in the range of 1 to 10 ×10⁻⁶ cm/s.
Taken in the same sequence, the figures for `NC(=O)C(=O)CC[C@H](NC(=O)c1cc2ccccc2o1)C(=O)Nc1cccn(CC(=O)N[C@@H]2C[C@@H]3CC[C@H]2C3)c1=O` [II-148, (S)-2-(benzofuran-2-carboxamido)-N1-(1-(2-((1S,2R,4R)-bicyclo[2.2.1]heptan-2-ylamino)-2-oxoethyl)-2-oxo-1,2-dihydropyridin-3-yl)-5-oxohexanediamide] were below 40 nM, below 1 and 1 to 10 ×10⁻⁶ cm/s.
For the molecule `Cc1c(C(=O)N[C@@H](CCC(=O)C(N)=O)C(=O)Nc2cccn(CC(=O)N[C@@H]3C[C@@H]4CC[C@H]3C4)c2=O)oc2ccccc12` [II-149, (S)-N1-(1-(2-((1S,2R,4R)-bicyclo[2.2.1]heptan-2-ylamino)-2-oxoethyl)-2-oxo-1,2-dihydropyridin-3-yl)-2-(3-methylbenzofuran-2-carboxamido)-5-oxohexanediamide], the IC50 in data set [1] is below 40 nM. Also, the logD in data set [2] is below 1. This molecule gave a Papp in data set [3] of 1 to 10 ×10⁻⁶ cm/s.
The matching figures for `CC1(C)[C@@H]2CC[C@@]1(C)[C@@H](NC(=O)Cn1cccc(NC(=O)[C@H](CCC(=O)C(N)=O)NC(=O)c3cc4ccccc4o3)c1=O)C2` [II-150, (S)-2-(benzofuran-2-carboxamido)-5-oxo-N1-(2-oxo-1-(2-oxo-2-((1R,2S,4R)-1,7,7-trimethylbicyclo[2.2.1]heptan-2-ylamino)ethyl)-1,2-dihydropyridin-3-yl)hexanediamide]: 40 to 400 nM, 1 to 3 and 1 to 10 ×10⁻⁶ cm/s.
The matching figures for `Cc1c(C(=O)N[C@@H](CCC(=O)C(N)=O)C(=O)Nc2cccn(CC(=O)N[C@H]3C[C@H]4CC[C@]3(C)C4(C)C)c2=O)oc2ccccc12` [II-151, (S)-2-(3-methylbenzofuran-2-carboxamido)-5-oxo-N1-(2-oxo-1-(2-oxo-2-((1R,2S,4R)-1,7,7-trimethylbicyclo[2.2.1]heptan-2-ylamino)ethyl)-1,2-dihydropyridin-3-yl)hexanediamide]: 40 to 400 nM, 1 to 3 and 1 to 10 ×10⁻⁶ cm/s.
Taken in the same sequence, the figures for `CNC(=O)C(=O)CC[C@H](NC(=O)c1snnc1C)C(=O)Nc1cccn(CC(=O)N[C@@H]2C[C@H]3CC[C@@H]2C3)c1=O` [II-152, (S)-N1-(1-(2-((1R,2R,4S)-bicyclo[2.2.1]heptan-2-ylamino)-2-oxoethyl)-2-oxo-1,2-dihydropyridin-3-yl)-N6-methyl-2-(4-methyl-1,2,3-thiadiazole-5-carboxamido)-5-oxohexanediamide] were 40 to 400 nM, below 1 and below 1 ×10⁻⁶ cm/s.
As to `CNC(=O)C(=O)CC[C@H](NC(=O)c1ccnn1C)C(=O)Nc1cccn(CC(=O)N[C@@H]2C[C@H]3CC[C@@H]2C3)c1=O` [II-153, (S)-N1-(1-(2-((1R,2R,4S)-bicyclo[2.2.1]heptan-2-ylamino)-2-oxoethyl)-2-oxo-1,2-dihydropyridin-3-yl)-N6-methyl-2-(1-methyl-1H-pyrazole-5-carboxamido)-5-oxohexanediamide], the IC50 in data set [1] fell in the range of 400 to 2500 nM. This molecule also returned a logD in data set [2] below 1. Besides, the Papp in data set [3] is below 1 ×10⁻⁶ cm/s.
